Where a name gives a salt, the structure may show the parent alone. Read-outs that look alike come from different tables or passages of the source.
How the values were obtained:
[1] = test system: relapsed or refractory AML; experiment: Treatment response in participants with AML (2017 European Leukemia Net recommendations); type: in vivo, human
Experimental: (§1) Treatment efficacy was assessed according to the 2017 European Leukemia Net recommendations for AML[23] and the 2006 International Working Group response criteria for MDS.[24] In participants with AML, efficacy outcomes included complete remission (CR), CR with incomplete blood count recovery (CRi), composite complete remission (CRc; CR + CRi), morphologic leukemia‐free state (MLFS), partial remission (PR), overall response rate (CRc + MLFS+PR), stable disease (SD), and treatment failure. Bone marrow biopsies/aspirates were obtained from all participants with AML on Day 1 of Cycles 2 and 3 and once every cycle until response and on Day 1 of Cycles 6, 9, and 12 in responding participants.

[2] = test system: high‐risk MDS; experiment: Treatment response in participants with high‐risk MDS (2006 International Working Group criteria); type: in vivo, human; conditions: Full Analysis Set
Experimental: as §1

[3] = Milademetan plasma pharmacokinetics; type: in vivo, human; parameters: AUC0‐24h versus dose, power model estimated slope: unit not given beside the values; conditions: for half-life / Tmax: human, plasma; for half-life: read-out: geometric mean t1/2
From the text: For PK analysis, blood samples were collected at frequent intervals during Cycle 1 Days 1 and 15 in Part 1 (monotherapy), and on Day 5 or 8 (according to dosing schedule) and Day 14 in Part 1A, with sparse sampling on other days.

[4] = test system: Macrophage inhibitory cytokine‐1 (MIC‐1); experiment: Serum MIC‐1 pharmacodynamics; type: in vivo, human; conditions: monotherapy, all cohorts
From the text: Macrophage inhibitory cytokine‐1 (MIC‐1) is a target of p53 transcriptional activation,[25] and, therefore, change in serum MIC‐1 levels was included as a PD endpoint, measured at multiple time points.

[5] = test system: patients with solid tumors or lymphomas; conditions: cited from earlier work
[6] = 160 mg QD for 15 days in Cycle 1
[7] = monotherapy, all studied doses, Cycle 1 Day 1

Compound: CC1(C)CCC2(CC1)N[C@@H](C(=O)N[C@@H]1CC[C@@H](C(N)=O)OC1)[C@H](c1ccnc(Cl)c1F)[C@]21C(=O)Nc2cc(Cl)ccc21 [Milademetan monotherapy, milademetan tosylate hydrate]
- AML: CR ([1]; Full Analysis Set): 2 (4%) n (%)
- AML: CRi ([1]; Full Analysis Set): 1 (2%) n (%)
- Participants who achieved CR with incomplete blood count recovery (CRi) ([1]; as given in the abstract): 2.1%
- Participants who achieved complete remission (CR) ([1]; as given in the abstract): 4.2%
- Participants with remission ([1]; as summed in the discussion): 4 n (%)
- MDS: Marrow CR [2]: 1 (11%) n (%)
- MDS: SD [2]: 2 (22%) n (%)
- accumulation ratio (AR) based on AUC0‐24h [3, 6]: 1.29
- accumulation ratio (AR) based on C max [3, 6]: 1.21
- Increase of C max, AUC0‐24h and AUClast with dose ([3]; both monotherapy and combination arms): dose‐proportional
- half-life ([3]; monotherapy, Cycle 1 Day 15): 7.2 to 25.2 h
- Tmax ([3]; Cohorts 1 through 3 (60, 90, 120 mg QD 21/28)): ~3 h
- Tmax [3, 7]: 3 to 4.6 h
- half-life [3, 7]: 12.9 to 24.6 h
- C max versus dose, power model estimated slope ([3]; monotherapy, Cycle 1 Day 1, 90% CI 0.44–1.08): 0.76
- AUC0‐24h versus dose, power model estimated slope ([3]; monotherapy, Cycle 1 Day 1, 90% CI 0.49–1.15): 0.82
- Time at which steady state is reached ([3]; repeated daily doses): ≤ 8 days
- serum MIC‐1, mean (SD) fold change from baseline ([4]; Cycle 1 Day 8 (N = 53)): 6.4 (5.8) fold change
- serum MIC‐1, mean (SD) fold change from baseline ([4]; Cycle 1 Day 15 (N = 49)): 5.1 (4.2) fold change
- serum MIC‐1, mean (SD) fold change from baseline ([4]; Cycle 1 Days 21 through 22): 4.1 (3.3) fold change
- DLT observed ([5]; 120 mg QD 21/28, phase 1 studies in the United States and Japan): thrombocytopenia and nausea
- MTD ([5]; US study in solid tumors, QD 3/14 × 2 schedule): 260 mg
